Values of other authors, collected in paper PMC9239115 (Amino acids, 2017).

Assays:
[1] = degraded in the circulation by ACE; ref Rodgers et al. 2006
C6 glioma cell lines = conditions: up to 200 μM; ref Pes 2013

| SMILES | Half-life in the circulation [1] | Toxicity on C6 glioma cell lines (C6 glioma cell lines) |
| --- | --- | --- |
| CC[C@H](C)[C@H](NC(=O)[C@H](Cc1ccc(O)cc1)NC(=O)[C@@H](NC(=O)[C@H](CCCNC(=N)N)NC(=O)[C@@H](N)CC(=O)O)C(C)C)C(=O)N[C@@H](Cc1c[nH]cn1)C(=O)N1CCC[C@H]1C(=O)O [Ang-(1–7), Angiotensin-(1–7)] | 29 min | – |
| NC[C@H]1C[C@@H](C(=O)O)C1 [ACCA, cis-3-(Aminomethyl)cyclobutanecarboxylic acid] | – | did not show any toxicity |
